Source: patent publication US20030118651A1, “Bio-compatible means for controlled drug delivery to tissue and method of use” (priority 2001, published 2003)

Assay type: physicochemical
Settings: pH 7.4
Method: The ORC-active agent combinations of example 2 and 3 can be suspended in neutral buffers at pH 7.4 at 37° C. to simulate body conditions for the purpose of studying the release of the drug in the buffer (in vitro). The test samples released Marcaine in the buffer while degrading. The ORC matrix is expected to degrade completely in 3-5 days if needed, degradation can be accelerated (terminal samples) by adding sodium bicarbonate base to the buffer solution. More particularly, for example, water bath is pre-heated to 37° C. Test samples of the ORC-Marcaine are cut into small pieces and the samples (in the range of 0.05g-01 g) are weighed and placed in labeled vials. The desired amount of buffer (e.g., 100, 50, 25 or 10 times, by weight, of the test sample) is added. For terminal samples, sufficient sodium bicarbonate is added to make a 0.15 M solution. The vials are placed in the pre-heated water bath for the desired period of time (approximately 10 min-120 hours).

time to complete degradation: 3 to 5 days
Substance: oxidized regenerated cellulose [ORC matrix]
